# Data as given in publication PMC12454493, “Insight on novel sulfamoylphenyl pyrazole derivatives as anticancer carbonic anhydrase inhibitors” (Molecular Diversity, 2024).
# Values joined by “and” are separate entries in the source; they are usually repeats but may differ in a detail not shown here. Equal values may be shown once.
# Experiments:
# [1] = biological target: hCA IX (Homo sapiens, UniProt Q16790); assay: CA inhibitory activity, spectrophotometric p-NPA assay; assay type: biochemical; conditions: p-NPA substrate, pH 7.5, 25 °C, triplicate; read-out: IC50 (µM) ± SD hCA IX
# [2] = system: HT29; assay: NCI-60 one-dose SRB screen (Colon Cancer); assay type: cell-based; conditions: Homo sapiens, HT-29, single dose 10 µM, 48 h, read-out: Growth inhibition percent (GI %)
# [3] = system: SW-620; assay: NCI-60 one-dose SRB screen (Colon Cancer); assay type: cell-based; conditions: Homo sapiens, single dose 10 µM, 48 h, read-out: Growth inhibition percent (GI %)
# [4] = system: HCT-15; assay: NCI-60 one-dose SRB screen (Colon Cancer); assay type: cell-based; conditions: Homo sapiens, single dose 10 µM, 48 h, read-out: Growth inhibition percent (GI %)
# [5] = system: KM12; assay: NCI-60 one-dose SRB screen (Colon Cancer); assay type: cell-based; conditions: Homo sapiens, single dose 10 µM, 48 h, read-out: Growth inhibition percent (GI %)
# [6] = system: HCC-2998; assay: NCI-60 one-dose SRB screen (Colon Cancer); assay type: cell-based; conditions: Homo sapiens, single dose 10 µM, 48 h, read-out: Growth inhibition percent (GI %)
# [7] = system: COLO 205; assay: NCI-60 one-dose SRB screen (Colon Cancer); assay type: cell-based; conditions: Homo sapiens, single dose 10 µM, 48 h, read-out: Growth inhibition percent (GI %)
# [8] = system: HCT-116; assay: NCI-60 one-dose SRB screen (Colon Cancer); assay type: cell-based; conditions: Homo sapiens, single dose 10 µM, 48 h, read-out: Growth inhibition percent (GI %)
# [9] = system: MALME-3M; assay: NCI-60 one-dose SRB screen (Melanoma); assay type: cell-based; conditions: Homo sapiens, single dose 10 µM, 48 h, read-out: Growth inhibition percent (GI %)
# [10] = system: UACC-62; assay: NCI-60 one-dose SRB screen (Melanoma); assay type: cell-based; conditions: Homo sapiens, single dose 10 µM, 48 h, read-out: Growth inhibition percent (GI %)
# [11] = system: UACC-257; assay: NCI-60 one-dose SRB screen (Melanoma); assay type: cell-based; conditions: Homo sapiens, single dose 10 µM, 48 h, read-out: Growth inhibition percent (GI %)
# [12] = system: SK-MEL-28; assay: NCI-60 one-dose SRB screen (Melanoma); assay type: cell-based; conditions: Homo sapiens, single dose 10 µM, 48 h, read-out: Growth inhibition percent (GI %)
# [13] = system: M14; assay: NCI-60 one-dose SRB screen (Melanoma); assay type: cell-based; conditions: Homo sapiens, single dose 10 µM, 48 h, read-out: Growth inhibition percent (GI %)
# [14] = system: SK-MEL-5; assay: NCI-60 one-dose SRB screen (Melanoma); assay type: cell-based; conditions: Homo sapiens, single dose 10 µM, 48 h, read-out: Growth inhibition percent (GI %)
# [15] = system: MDA-MB-435; assay: NCI-60 one-dose SRB screen (Melanoma); assay type: cell-based; conditions: Homo sapiens, single dose 10 µM, 48 h, read-out: Growth inhibition percent (GI %)
# [16] = system: LOX IMVI; assay: NCI-60 one-dose SRB screen (Melanoma); assay type: cell-based; conditions: Homo sapiens, single dose 10 µM, 48 h, read-out: Growth inhibition percent (GI %)
# [17] = system: U251; assay: NCI-60 one-dose SRB screen (CNS Cancer); assay type: cell-based; conditions: Homo sapiens, U-251, single dose 10 µM, 48 h, read-out: Growth inhibition percent (GI %)
# [18] = system: SNB-19; assay: NCI-60 one-dose SRB screen (CNS Cancer); assay type: cell-based; conditions: Homo sapiens, single dose 10 µM, 48 h, read-out: Growth inhibition percent (GI %)
# [19] = system: SNB-75; assay: NCI-60 one-dose SRB screen (CNS Cancer); assay type: cell-based; conditions: Homo sapiens, single dose 10 µM, 48 h, read-out: Growth inhibition percent (GI %)
# [20] = system: SF-295; assay: NCI-60 one-dose SRB screen (CNS Cancer); assay type: cell-based; conditions: Homo sapiens, single dose 10 µM, 48 h, read-out: Growth inhibition percent (GI %)
# [21] = system: SF-268; assay: NCI-60 one-dose SRB screen (CNS Cancer); assay type: cell-based; conditions: Homo sapiens, single dose 10 µM, 48 h, read-out: Growth inhibition percent (GI %)
# [22] = system: SF-539; assay: NCI-60 one-dose SRB screen (CNS Cancer); assay type: cell-based; conditions: Homo sapiens, single dose 10 µM, 48 h, read-out: Growth inhibition percent (GI %)
# [23] = system: HOP-92; assay: NCI-60 one-dose SRB screen (Non-Small Cell Lung Cancer); assay type: cell-based; conditions: Homo sapiens, single dose 10 µM, 48 h, read-out: Growth inhibition percent (GI %)
# [24] = system: NCI-H23; assay: as above; assay type: cell-based; conditions: Homo sapiens, single dose 10 µM, 48 h, read-out: Growth inhibition percent (GI %)
# [25] = system: NCI-H460; assay: as above; assay type: cell-based; conditions: Homo sapiens, single dose 10 µM, 48 h, read-out: Growth inhibition percent (GI %)
# [26] = system: NCI-H322M; assay: as above; assay type: cell-based; conditions: Homo sapiens, single dose 10 µM, 48 h, read-out: Growth inhibition percent (GI %)
# [27] = system: NCI-H522; assay: as above; assay type: cell-based; conditions: Homo sapiens, single dose 10 µM, 48 h, read-out: Growth inhibition percent (GI %)
# [28] = system: EKVX; assay: as above; assay type: cell-based; conditions: Homo sapiens, single dose 10 µM, 48 h, read-out: Growth inhibition percent (GI %)
# [29] = system: HOP-62; assay: as above; assay type: cell-based; conditions: Homo sapiens, single dose 10 µM, 48 h, read-out: Growth inhibition percent (GI %)
# [30] = system: NCI-H226; assay: as above; assay type: cell-based; conditions: Homo sapiens, single dose 10 µM, 48 h, read-out: Growth inhibition percent (GI %)
# [31] = system: A549/ATCC; assay: as above; assay type: cell-based; conditions: Homo sapiens, single dose 10 µM, 48 h, read-out: Growth inhibition percent (GI %)
# [32] = system: CCRF-CEM; assay: NCI-60 one-dose SRB screen (Leukemia); assay type: cell-based; conditions: Homo sapiens, single dose 10 µM, 48 h, read-out: Growth inhibition percent (GI %)
# [33] = system: MCF-7; assay: NCI-60 one-dose SRB screen (Breast Cancer); assay type: cell-based; conditions: Homo sapiens, MCF7, single dose 10 µM, 48 h, read-out: Growth inhibition percent (GI %)
# [34] = system: MDA-MB-468; assay: NCI-60 one-dose SRB screen (Breast Cancer); assay type: cell-based; conditions: Homo sapiens, single dose 10 µM, 48 h, read-out: Growth inhibition percent (GI %)
# [35] = system: T-47D; assay: NCI-60 one-dose SRB screen (Breast Cancer); assay type: cell-based; conditions: Homo sapiens, T47D, single dose 10 µM, 48 h, read-out: Growth inhibition percent (GI %)
# [36] = system: HS 578T; assay: NCI-60 one-dose SRB screen (Breast Cancer); assay type: cell-based; conditions: Homo sapiens, single dose 10 µM, 48 h, read-out: Growth inhibition percent (GI %)
# [37] = system: MDA-MB-231/ATCC; assay: NCI-60 one-dose SRB screen (Breast Cancer); assay type: cell-based; conditions: Homo sapiens, single dose 10 µM, 48 h, read-out: Growth inhibition percent (GI %)
# [38] = system: BT-549; assay: NCI-60 one-dose SRB screen (Breast Cancer); assay type: cell-based; conditions: Homo sapiens, single dose 10 µM, 48 h, read-out: Growth inhibition percent (GI %)
# [39] = system: CAKI-1; assay: NCI-60 one-dose SRB screen (Renal Cancer); assay type: cell-based; conditions: Homo sapiens, single dose 10 µM, 48 h, read-out: Growth inhibition percent (GI %)
# [40] = system: 786-0; assay: NCI-60 one-dose SRB screen (Renal Cancer); assay type: cell-based; conditions: Homo sapiens, single dose 10 µM, 48 h, read-out: Growth inhibition percent (GI %)
# [41] = system: RXF 393; assay: NCI-60 one-dose SRB screen (Renal Cancer); assay type: cell-based; conditions: Homo sapiens, single dose 10 µM, 48 h, read-out: Growth inhibition percent (GI %)
# [42] = system: A498; assay: NCI-60 one-dose SRB screen (Renal Cancer); assay type: cell-based; conditions: Homo sapiens, single dose 10 µM, 48 h, read-out: Growth inhibition percent (GI %)
# [43] = system: ACHN; assay: NCI-60 one-dose SRB screen (Renal Cancer); assay type: cell-based; conditions: Homo sapiens, single dose 10 µM, 48 h, read-out: Growth inhibition percent (GI %)
# [44] = system: TK-10; assay: NCI-60 one-dose SRB screen (Renal Cancer); assay type: cell-based; conditions: Homo sapiens, single dose 10 µM, 48 h, read-out: Growth inhibition percent (GI %)
# [45] = system: UO-31; assay: NCI-60 one-dose SRB screen (Renal Cancer); assay type: cell-based; conditions: Homo sapiens, single dose 10 µM, 48 h, read-out: Growth inhibition percent (GI %)
# [46] = system: SN12C; assay: NCI-60 one-dose SRB screen (Renal Cancer); assay type: cell-based; conditions: Homo sapiens, single dose 10 µM, 48 h, read-out: Growth inhibition percent (GI %)
structure (smiles),measurement,setting,value
"COc1ccc(-c2nn(-c3ccc(S(N)(=O)=O)cc3)cc2C(=O)OCC(=O)Nc2ccc(S(N)(=O)=O)cc2)cc1 [Compound 4c, 2-Oxo-2-[(4-sulfamoylphenyl)amino] ethyl 3-(4-methoxyphenyl)-1-(4-sulfamoylphenyl)-1H-pyrazole-4-carboxylate]",IC50,[1],0.17 µM and 0.175 µM
same,inhibition at 10 µM,[2],< 5%
same,inhibition at 10 µM,[3],< 5%
same,inhibition at 10 µM,[4],< 5%
same,inhibition at 10 µM,[5],< 5%
same,inhibition at 10 µM,[6],< 5%
same,inhibition at 10 µM,[7],< 5%
same,inhibition at 10 µM,[8],37.5%
same,inhibition at 10 µM,[9],< 5%
same,inhibition at 10 µM,[10],< 5%
same,inhibition at 10 µM,[11],< 5%
same,inhibition at 10 µM,[12],< 5%
same,inhibition at 10 µM,[13],43.3%
same,inhibition at 10 µM,[14],< 5%
same,inhibition at 10 µM,[15],< 5%
same,inhibition at 10 µM,[16],< 5%
same,inhibition at 10 µM,[17],< 5%
same,inhibition at 10 µM,[18],< 5%
same,inhibition at 10 µM,[19],28.7%
same,inhibition at 10 µM,[20],< 5%
same,inhibition at 10 µM,[21],< 5%
same,inhibition at 10 µM,[22],< 5%
same,inhibition at 10 µM,[23],< 5%
same,inhibition at 10 µM,[24],< 5%
same,inhibition at 10 µM,[25],< 5%
same,inhibition at 10 µM,[26],< 5%
same,inhibition at 10 µM,[27],< 5%
same,inhibition at 10 µM,[28],< 5%
same,inhibition at 10 µM,[29],< 5%
same,inhibition at 10 µM,[30],< 5%
same,inhibition at 10 µM,[31],< 5%
same,inhibition at 10 µM,[32],< 5%
same,inhibition at 10 µM,[33],8.77%
same,inhibition at 10 µM,[34],< 5%
same,inhibition at 10 µM,[35],< 5%
same,inhibition at 10 µM,[36],< 5%
same,inhibition at 10 µM,[37],< 5%
same,inhibition at 10 µM,[38],41.6%
same,inhibition at 10 µM,[39],8.36%
same,inhibition at 10 µM,[40],28.9%
same,inhibition at 10 µM,[41],< 5%
same,inhibition at 10 µM,[42],< 5%
same,inhibition at 10 µM,[43],< 5%
same,inhibition at 10 µM,[44],< 5%
same,inhibition at 10 µM,[45],11.9%
same,inhibition at 10 µM,[46],< 5%
